Test results published in US20140128365A1, “PYRIDONE/HYDROXYPYRIDINE 11-BETA HYDROXYSTEROID DEHYDROGENASE TYPE I INHIBITORS” (BRISTOL-MYERS SQUIBB COMPANY, priority 2012, published 2014).
pIC50: −log10 of the molar value. Read-outs that look alike come from different tables or passages of the source.

Legend:
[1] = biological target: T1, recombinant human 11beta-HSD1 (Homo sapiens, UniProt P28845); assay: In vitro inhibition of recombinant human 11beta-HSD1, microsomal Scintillation Proximity Assay (SPA); format: biochemical; details: microsomes from HEK 293 EBNA cells, 250 nM [3H]-cortisone, 500 μM NADPH, pH 6.5, room temperature
T1 construct: made in house; microsomal fraction used as enzyme source
Experimental: The in vitro inhibition of recombinant human 11beta-HSD1 was determined as follows.
Cells were grown in DMEM (high glucose) containing MEM non-essential amino acids, L-glutamine, hygromycine B (200 ug/ml), and G418 (200 ug/ml). The cell pellets were homogenized, and the microsomal fraction was obtained by differential centrifugation. 11beta-HSD1 over expressed microsomes were used as the enzyme source for the Scintillation Proximity Assay (SPA). […] The reaction was terminated with the addition of 1 mM 18β-glycerrhentic acid. SPA reagent mixture (YSi anti-rabbit IgG, anti-cortisol antibody in 50 mM Tris, pH 8.0 containing 1% CHAPS and 1% glycerol) was added and the reaction was further incubated at room temperature over night and counted in TopCount.
In the structures set forth in Table 10, the “—O” attached to the carbon adjacent to the nitrogen in the bicyclic core is used to denote an “—OH” group as indicated in Formula I. Similarly, in the structures set forth in Table 10, the “N” adjacent to the carbon atom substituted with ═O in the bicyclic or tricyclic core is used to denote an “NH” moiety as indicated in Formula I-t.

[2] = test system: hepatic glucose production; details: seven day treatment, patients with type 2 diabetes, versus placebo group; cited from earlier work

T1 sequence (P28845 whole entry): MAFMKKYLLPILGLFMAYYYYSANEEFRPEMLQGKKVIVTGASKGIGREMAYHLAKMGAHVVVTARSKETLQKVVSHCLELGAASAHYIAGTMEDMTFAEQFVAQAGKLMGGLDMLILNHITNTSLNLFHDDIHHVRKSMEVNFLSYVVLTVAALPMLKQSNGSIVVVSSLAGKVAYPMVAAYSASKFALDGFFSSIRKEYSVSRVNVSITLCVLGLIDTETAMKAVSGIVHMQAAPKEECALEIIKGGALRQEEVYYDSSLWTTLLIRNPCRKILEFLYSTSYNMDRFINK

Compound	pIC50 [1]	other results
COc1ccc(CSc2nc(O)c(C#N)c3c2CCCC3)cc1 [Example 25]	6.33	
N#Cc1c(O)nc(SCc2ccccc2C(=O)O)c2c1CCCC2 [Example 34]	< 5.00	
CC1(C)[C@@H](OC(=O)CCC(=O)O)CC[C@]2(C)[C@H]3C(=O)C=C4[C@@H]5C[C@@](C)(C(=O)O)CC[C@]5(C)CC[C@@]4(C)[C@]3(C)CC[C@@H]12 [carbenoxolone]		hepatic glucose production [2]: decrease in hepatic glucose production
N#Cc1ccccc1CSc1nc(O)c(C#N)c2ccc(F)cc12 [Example 153]	8.84	
COc1cccc(CSc2nc(O)c(C#N)c3c2CCCC3)c1 [Example 17]	6.34	
4,7-Dichloro-1-(2-chlorobenzylthio)isoquinolin-3-ol [Example 109]		pIC50 ([1]; read-out: IC50 (concentration of compound required for 50% inhibition of cortisol formation)): 6.17
